Measurements taken from patent US20070259927A1, “Remedy for Diabetes” (Takeda Pharmaceutical Company Limited, priority 2004, published 2007).

Experiments:
Assay type in all cases: in vivo
db/db mouse [1] = experiment: Experimental Example 2: db/db mouse, powder diet for 5 weeks, pioglitazone and vildagliptin alone or combined; settings: db/db mice, in powder diet 5 weeks, mean (n=8)±standard deviation; for pancreatic insulin content: pancreas removed day 37
Text: First of all, db/db mice (32 mice) were divided into 4 groups of F to I (8 mice in each group), and
a powder diet (trade name: CE-2, Clea Japan, Inc., hereinafter the same) was given to group F (control group), a powder diet containing pioglitazone hydrochloride (0.01 (w/w) % as pioglitazone) was given to group G,
a powder diet containing pioglitazone hydrochloride
In addition, a powder diet was given to db/+m mice for 5 consecutive weeks, and the mice were used as group J (normal group).
(§1) In the above-mentioned groups F to I, blood samples were collected from mice on day 35 from the start of the powder diet administration, and plasma glucose level and plasma insulin level were measured. On day 37 from the start of the powder diet administration, the pancreas was removed from the mice, and the pancreatic insulin content was measured.
The plasma glucose level, plasma insulin level, plasma insulin/plasma glucose value, and the pancreatic insulin content were measured in the same manner as in Experimental Example 1.
The results are shown in [Table 5] to [Table 8]. The values in the tables show mean (n=8)±standard deviation.

db/db mouse [2] = experiment: Experimental Example 3: db/db mouse, powder diet for 4 weeks, pioglitazone and sitagliptin alone or combined; settings: db/db mice, in powder diet 4 weeks, mean (n=8)±standard deviation; for plasma insulin level / plasma glucose level / plasma insulin/plasma glucose value: day 28; for plasma insulin level / pancreatic insulin content: pioglitazone 0.01(w/w)%, sitagliptin 0.03(w/w)%; for plasma glucose level: pioglitazone hydrochloride 0.01(w/w)% as pioglitazone, sitagliptin hydrochloride 0.03(w/w)% as sitagliptin; for plasma insulin/plasma glucose value: plasma insulin level divided by plasma glucose level; for pancreatic insulin content: pancreas removed day 29
Text: First of all, db/db mice (32 mice) were divided into 4 groups of […] mice in each group), and a powder diet (trade name: CE-2, Clea Japan, Inc., hereinafter the same) was given to group K (control group), a powder diet containing pioglitazone hydrochloride (0.01(w/w) % as pioglitazone) was given to group L, a powder diet containing sitagliptin hydrochloride (0.03(w/w) % as sitagliptin) was given to group M, and a powder diet containing pioglitazone hydrochloride (0.01(w/w) % as pioglitazone) and sitagliptin hydrochloride (0.03(w/w) % as sitagliptin) was given to group N, for 4 consecutive weeks. In addition, a powder diet was given to db/+m mice for 4 consecutive weeks, and the mice were used as group 0 (normal group). In the above-mentioned groups K to N, blood samples were collected from mice on day 28 from the start of the powder diet administration, and plasma glucose level and plasma insulin level were measured. […] The results are shown in [Table 9] to [Table 12]. The values in the tables show mean (n=8)±standard deviation.

db/db mouse [3] = experiment: Experimental Example 1: db/db mouse, powder diet for 3 weeks, pioglitazone and compound A alone or combined; settings: db/db mice, in powder diet 3 weeks, mean (n=8)±standard deviation; for plasma insulin level / plasma glucose level / plasma insulin/plasma glucose value: day 21; for plasma insulin level / pancreatic insulin content: pioglitazone 0.01(w/w)%, compound A 0.03(w/w)% (½ fumarate); for plasma glucose level: pioglitazone hydrochloride 0.01(w/w)% as pioglitazone, ½ fumarate of compound A 0.03(w/w)% as compound A; for plasma insulin/plasma glucose value: plasma insulin level divided by plasma glucose level; for pancreatic insulin content: pancreas removed day 23
Text: First of all, db/db mice (32 mice) were divided into 4 groups of A to D (8 mice in each group), and a powder diet (trade name: CE-2, Clea Japan, Inc., hereinafter the same) was given to group A (control group), a powder diet containing pioglitazone hydrochloride (0.01(w/w) % as pioglitazone) was given to group B, a powder diet containing ½ fumarate of compound A (0.03(w/w) % as compound A) was given to group C, and a powder diet containing pioglitazone hydrochloride (0.01(w/w) % as pioglitazone) and ½ fumarate of compound A (0.03(w/w) % as compound A) was given to group D, for 3 consecutive weeks.
In addition, a powder diet was given to db/+m mice for 3 consecutive weeks, and the mice were used as group E (normal group).
as §1, with “A” for “F”, “E,” for “I,”, “21” for “35”, “23” for “37”
The plasma glucose level was measured by an enzyme method using L type Wako Glu2 (trade name, Wako Pure Chemical Industries, Ltd.).
In addition, the plasma insulin level was measured by a radioimmunoassay (trade name, ShionoRIA insulin), and the plasma insulin level was divided by the plasma glucose level to determine the plasma insulin/plasma glucose value.
The pancreatic insulin content was measured as follows.
First, the mouse pancreas was disrupted in its 10 times weight of 75% ethanol (containing 0.15 M hydrochloric acid). The obtained disrupted solution was left standing overnight under the shading conditions at 4·^□C, and centrifuged at 15000 rpm for 5 min. The obtained supernatant was appropriately diluted with PBS(−) (phosphate-buffered saline) containing 0.1% BSA (bovine serum albumin). The insulin content of the diluted solution was measured in the same manner as in the above-mentioned plasma insulin level, and the insulin content per pancreatic tissue weight was calculated.
The results are shown in [Table 1] to [Table 4]. The values in the tables show mean (n=8)±standard deviation.

[4] = pioglitazone 0.01(w/w)%, vildagliptin 0.03(w/w)%

| SMILES | pancreatic insulin content (db/db mouse [1]; [4]) [μU/mg tissue] | plasma insulin level (db/db mouse [2]) [μU/mL] | plasma glucose level (db/db mouse [2]) [mg/dL] | plasma insulin/plasma glucose value (db/db mouse [2]) [μU/mg] | pancreatic insulin content (db/db mouse [2]) [μU/mg tissue] | plasma insulin level (db/db mouse [3]) [μU/mL] | plasma glucose level (db/db mouse [3]) [mg/dL] | plasma insulin/plasma glucose value (db/db mouse [3]) [μU/mg] | pancreatic insulin content (db/db mouse [3]) [μU/mg tissue] | plasma insulin level (db/db mouse [1]; day 35, pioglitazone 0.01(w/w)%, vildagliptin 0.03(w/w)%) [μU/mL] | plasma glucose level (db/db mouse [1]; day 35, pioglitazone hydrochloride 0.01(w/w)% as pioglitazone, vildagliptin 0.03(w/w)%) [mg/dL] | plasma insulin/plasma glucose value (db/db mouse [1]; day 35, plasma insulin level divided by plasma glucose level) [μU/mg] |
| --- | --- | --- | --- | --- | --- | --- | --- | --- | --- | --- | --- | --- |
| N#C[C@@H]1CCCN1C(=O)CNC12CC3CC(CC(O)(C3)C1)C2 [vildagliptin, (2S)-1-{[(3-hydroxy-1-adamantyl)amino]acetyl}-2-cyano-pyrrolidine] | 559.2 ± 169.2 |  |  |  |  |  |  |  |  |  |  |  |
| N[C@@H](CC(=O)N1CCn2c(nnc2C(F)(F)F)C1)Cc1cc(F)c(F)cc1F [sitagliptin] |  | 103.1 ± 47.2 | 492.3 ± 38.3 | 21.6 ± 11.3 | 331.1 ± 79.6 |  |  |  |  |  |  |  |
| Cc1ccc(-c2c(CN)c(CC(C)C)nc(C)c2C(=O)O)cc1 [compound A, 5-(aminomethyl)-6-isobutyl-2-methyl-4-(4-methylphenyl)nicotinic acid] |  |  |  |  |  | 135.5 ± 115.4 | 502.0 ± 54.3 | 29.0 ± 28.4 | 918.4 ± 328.6 |  |  |  |
| CCc1ccc(CCOc2ccc(CC3SC(=O)NC3=O)cc2)nc1 (stereo not drawn) [pioglitazone] | 834.7 ± 275.3 | 739.5 ± 472.8 | 341.0 ± 100.6 | 261.7 ± 217.9 | 1117.2 ± 479.7 | 289.2 ± 261.8 | 411.0 ± 54.4 | 72.9 ± 64.5 | 2314.2 ± 1285.4 | 200.2 ± 78.0 | 348.5 ± 97.4 | 63.9 ± 35.9 |
